15 compounds from ChEMBL document CHEMBL1671721, “Chemical validation of phosphodiesterase C as a chemotherapeutic target in Trypanosoma cruzi, the etiological agent of Chagas' disease” (Antimicrob Agents Chemother, 2010) can be followed below.

Data set [1] can be described thus: Cytotoxicity against rat L6E9 myoblasts upto 1 uM.
A short description of data set [2]: Cytotoxicity against rat L6E9 myoblasts at 1 to 25 uM.
Data set [3] deals with T1, Cyclic nucleotide specific phosphodiesterase (Trypanosoma cruzi, UniProt Q53I59).
T1 sequence (Q53I59 whole entry): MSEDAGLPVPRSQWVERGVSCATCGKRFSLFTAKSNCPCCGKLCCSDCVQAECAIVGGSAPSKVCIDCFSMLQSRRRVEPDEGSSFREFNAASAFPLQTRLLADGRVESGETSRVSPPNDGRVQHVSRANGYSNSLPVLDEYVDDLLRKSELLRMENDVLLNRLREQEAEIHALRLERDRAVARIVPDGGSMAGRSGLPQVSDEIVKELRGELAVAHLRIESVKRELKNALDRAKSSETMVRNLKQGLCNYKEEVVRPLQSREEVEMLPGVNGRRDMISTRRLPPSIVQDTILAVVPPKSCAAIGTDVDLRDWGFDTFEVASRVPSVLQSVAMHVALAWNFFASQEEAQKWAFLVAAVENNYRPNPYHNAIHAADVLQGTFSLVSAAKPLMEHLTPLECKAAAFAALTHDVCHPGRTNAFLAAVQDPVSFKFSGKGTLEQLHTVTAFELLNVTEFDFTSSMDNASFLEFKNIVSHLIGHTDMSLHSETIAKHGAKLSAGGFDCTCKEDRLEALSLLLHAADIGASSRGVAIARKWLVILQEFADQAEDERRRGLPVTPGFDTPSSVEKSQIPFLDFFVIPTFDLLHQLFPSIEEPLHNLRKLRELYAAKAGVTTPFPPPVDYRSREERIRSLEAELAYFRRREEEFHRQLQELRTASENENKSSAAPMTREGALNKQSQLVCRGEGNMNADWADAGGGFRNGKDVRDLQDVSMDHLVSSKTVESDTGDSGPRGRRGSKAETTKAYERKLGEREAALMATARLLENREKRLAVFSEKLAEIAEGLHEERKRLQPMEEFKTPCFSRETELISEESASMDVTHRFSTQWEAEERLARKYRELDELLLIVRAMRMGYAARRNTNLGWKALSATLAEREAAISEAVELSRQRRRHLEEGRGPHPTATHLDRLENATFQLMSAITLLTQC
The data set can be described thus: Inhibition of Trypanosoma cruzi Y PDEC after 30 mins.

Data set [4] in a line: Cytotoxicity against rat L6E9 myoblasts at >25 uM.
For data set [5], the system named is Trypanosoma cruzi. The experiment in a line: Antimicrobial activity against Trypanosoma cruzi Y infected in rat L6E9 myoblasts assessed as inhibition of [5,6-3H]uracil incorporation after 3 days postinfection by scintillation counter. It counts as functional, organism-based.
The target in data set [6] is Phosphodiesterase 4 (Homo sapiens, UniProt P27815+Q08499+Q07343+Q08493). The experiment in a line: Inhibition of human PDE4 after 30 mins. In kind it is protein assay.
The target of data set [7] is T2, Cyclic nucleotide specific phosphodiesterase (Trypanosoma cruzi) (UniProt Q53I59).
T2 sequence (whole entry): T1 sequence (Q53I59 whole entry)
The data set can be described thus: Inhibition of Trypanosoma cruzi Y PDEC assessed as cAMP accumulation at 43 uM after 1 to 5 mins by luminescence spectrophotometry. (In general: Changes in cAMP serve as a functional read-out for many G protein-coupled receptors.)

In data set [8] the target is T2, Cyclic nucleotide specific phosphodiesterase (Trypanosoma cruzi). The data set can be described thus: Inhibition of Trypanosoma cruzi Y PDEC assessed as cAMP accumulation at 90 uM after 1 to 5 mins by luminescence spectrophotometry.
The target is the same in data set [9]. The data set can be described thus: Inhibition of Trypanosoma cruzi Y PDEC assessed as cAMP accumulation at 26 uM after 1 to 5 mins by luminescence spectrophotometry.
Data set [10] has the same target. The data set can be described thus: Inhibition of Trypanosoma cruzi Y PDEC assessed as cAMP accumulation at 4.5 to 45 uM after 1 to 5 mins by luminescence spectrophotometry.
Data set [11] is described as follows: Cytotoxicity against rat L6E9 myoblasts at >10 uM.
Data set [12] concerns the target T2, Cyclic nucleotide specific phosphodiesterase (Trypanosoma cruzi). The data set can be described thus: Inhibition of Trypanosoma cruzi Y PDEC assessed as decrease in osmolarity preincubated with 8.7 uM compound measured after 10 mins by light scattering.
Data set [13] has the same target. The experiment in a line: Inhibition of Trypanosoma cruzi Y PDEC assessed as volume recovery preincubated with 8.7 uM compound measured after 10 mins by light scattering.
The test system of data set [14] is Trypanosoma cruzi. The experiment in a line: Antimicrobial activity against Trypanosoma cruzi Y infected in L6E9 myoblasts assessed as inhibition of [3H]uracil incorporation at 1 uM after 3 hrs postinfection by scintillation counter. Also noted: scale not given: the % may be the effect or the level left. It counts as functional.
Data set [15] deals with Trypanosoma cruzi. The experiment in a line: Antimicrobial activity against Trypanosoma cruzi Y infected in L6E9 myoblasts assessed as inhibition of [3H]uracil incorporation at 25 uM after 3 hrs postinfection by scintillation counter. In kind it is functional. Also noted: scale not given: the % may be the effect or the level left.
The subject of data set [16] is Trypanosoma cruzi. The experiment in a line: Antimicrobial activity against Trypanosoma cruzi infected in rat L6E9 myoblasts assessed as inhibition of [3H]uracil incorporation by giemsa staining. To be noted: L6E9, 3 h.

Calls of active or inactive are those of the source. No cut-off for these calls is given here.

The IC50 is the concentration at which inhibition is half-maximal. As for `O=S(=O)(Cc1noc(-c2ccc(Cl)cc2)n1)c1ccccn1`, the Activity entry in [1] is listed as “Toxic”; in [2] it was “Non-toxic”. This compound also showed an IC50 in [3] of 2.4 µM.

For the compound `O=C(Nc1csc2ccccc12)NC1Cc2ccccc2C1`, the Activity result is “Toxic” in [4] and “Non-toxic” in data set [2]. In data set [3], this compound returned an IC50 greater than 10 µM.

Regarding `CCCCC(=O)c1ccc(OC2CCOCC2)c(OC)c1`, the IC50 in [5] came to 5.2 µM; in data set [3], 3.5 µM; in data set [6], 71 µM. Further, in data set [2], the Activity entry was “Non-toxic”. The inhibition entry in data set [7], in data set [8], in data set [9] and in data set [10] was “Active” throughout.

Regarding `O=S(=O)(Cc1noc(-c2ccno2)n1)Cc1ccco1`, the Activity result is recorded as “Toxic” in data set [1] and “Non-toxic” in [2]. This compound yielded an IC50 in data set [3] of 4.5 µM.

With `O=C(Cn1nnc(N2CCCC2)n1)N/N=C/c1ccncc1`, the Activity result in data set [11] is on record as “Toxic”; in data set [2] it was “Non-toxic”. The same compound came in with an IC50 in data set [3] greater than 10 µM.

For `CCCC(=O)c1ccc(OC2CCN(C(=O)OC(C)(C)C)CC2)c(OC)c1`, the IC50 stood at 3.3 µM in data set [5], 6.5 µM in [3] and 29 µM in [6]. Moreover, in data set [2], the Activity entry is listed as “Non-toxic”. For the same compound, the inhibition result in data set [7], in [8], in data set [9] and in data set [10] was “Active” each time. The inhibition result in data set [12] and in [13] was “inactive” throughout.

For `O=S(=O)(Cc1noc(CSc2ccc(Cl)cc2)n1)c1ccccn1`, the Activity entry in data set [11] is reported as “Toxic”; in [2], “Non-toxic”. Besides, the IC50 in data set [3] was greater than 10 µM.

Turning to `O=C1c2ccccc2C(=O)N1Cc1csc(-c2cccs2)n1`, the Activity in data set [14] was determined as 51%; in [15] it was 98%. Besides, in [3], the IC50 was found to be 4.1 µM.

On to `CCCCC(=O)c1ccc(OC2CCOC2)c(OC)c1` (stereo not drawn), for which the IC50 in data set [5] stood at 1.8 µM; in data set [3] it was 5.1 µM; in data set [6] it was 100 µM. In addition, in [2], the Activity result is “Non-toxic”. In addition, the inhibition result in data set [7], in data set [8], in data set [9] and in [10] was “Active” in each case.

In the case of `O=C(Nc1ccc(S(=O)(=O)N2CCCCC2)cc1)NC1CCCC1`, the Activity result in data set [1] is recorded as “Toxic”; in data set [2], “Non-toxic”. The same compound returned an IC50 in data set [3] greater than 10 µM.

In the case of `CSc1noc(-c2ccc(S(=O)(=O)NCc3ccccc3)s2)c1C#N`, the Activity result is reported as “Toxic” in data set [4] and “Non-toxic” in data set [2]. Moreover, the half-maximal inhibitory concentration (IC50) in [3] was determined as 4.3 µM.

With `CC1CS(=O)(=O)CCN1/N=C/c1ccc([N+](=O)[O-])o1` (stereo not drawn) [NIFURTIMOX], the IC50 in data set [16] worked out at 2.8 µM.

Consider `CCOC(=O)Cc1csc(NC(=O)Nc2ccc(Cl)c(Cl)c2)n1`, for which the figures for the Activity result in [1] and in data set [2] were “Toxic” and “Non-toxic”, respectively. The compound also showed an IC50 in [3] of 3.6 µM.

On to `CCOC(=O)c1csc(COc2ccc(C3SCCS3)cc2)n1`, for which the Activity result in data set [4] is listed as “Toxic”; in data set [2], “Non-toxic”. Moreover, the IC50 in data set [3] is greater than 10 µM.

Turning to `O=C(Cn1ccnc1[N+](=O)[O-])NCc1ccccc1` [BENZNIDAZOLE], in data set [16], the IC50 came to 3.7 µM.
